Laboratory results from patent US20240366770A1, “DEGRADATION OF BRUTON'S TYROSINE KINASE (BTK) BY CONJUGATION OF BTK INHIBITORS WITH E3 LIGASE LIGAND AND METHODS OF USE” (BeiGene Switzerland GmbH, priority 2021, published 2024).
Read-outs that look alike come from different tables or passages of the source.

Columns and labels:
BTK = target: T1, BTK (Homo sapiens, UniProt Q06187); experiment: BTK degradation in TMD-8 cells (HTRF assay); assay type: cell-based; details: 6 h treatment, IC50 (DC50) of BTK degradation
T1 construct: High control=Cell group with added DMSO and without compound, indicating microplate readings without BTK degradation; endogenous in cells; host or cells: TMD-8
T1 sequence (Q06187 whole entry): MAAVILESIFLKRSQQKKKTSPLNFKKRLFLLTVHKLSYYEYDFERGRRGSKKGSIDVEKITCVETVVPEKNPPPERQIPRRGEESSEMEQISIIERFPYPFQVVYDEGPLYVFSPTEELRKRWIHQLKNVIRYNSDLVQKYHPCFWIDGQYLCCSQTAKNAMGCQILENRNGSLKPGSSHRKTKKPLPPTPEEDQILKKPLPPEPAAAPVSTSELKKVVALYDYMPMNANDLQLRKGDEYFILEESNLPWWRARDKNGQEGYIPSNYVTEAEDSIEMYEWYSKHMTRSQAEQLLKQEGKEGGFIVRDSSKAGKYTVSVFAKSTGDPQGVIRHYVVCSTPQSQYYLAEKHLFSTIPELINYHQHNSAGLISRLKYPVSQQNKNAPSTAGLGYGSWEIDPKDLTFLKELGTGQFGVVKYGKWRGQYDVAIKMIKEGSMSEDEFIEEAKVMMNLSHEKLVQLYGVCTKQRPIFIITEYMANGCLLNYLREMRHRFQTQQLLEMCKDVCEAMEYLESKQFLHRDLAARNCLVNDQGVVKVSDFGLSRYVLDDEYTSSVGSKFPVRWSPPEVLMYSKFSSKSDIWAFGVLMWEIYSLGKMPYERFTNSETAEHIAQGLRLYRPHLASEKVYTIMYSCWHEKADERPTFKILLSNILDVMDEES
Procedure, shortened: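 BTK remaining after compound treatment was measured by HTRF (337 nm excitation, 665/620 nm emission) in lysates of TMD-8 cells. Cells were exposed for 6 h to eight 6-fold-spaced concentrations in 0.2% DMSO. DC50 values were obtained from a Hill-equation fit (top, bottom, slope) of % inhibition.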

HEK-293 cells = experiment: HEK-293 cytotoxicity detection (CellTiter-Glo); assay type: cell-based; details: HEK-293 cells, 72 h incubation, CellTiter-Glo luminescence, IC50 of cell proliferation inhibition, read-out: HEK293
Procedure, shortened: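 Four-parameter logistic fitting of percent inhibition versus concentration gives IC50. Luminescent ATP read-out (CellTiter-Glo) after 72 h compound treatment of HEK-293 cells, 8 doses in 4-fold steps from a 5 mM 500× DMSO stock, final DMSO 0.2%.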

DC50 (BTK) [nM] | Structure (SMILES) | IC50 (HEK-293 cells; Homo sapiens) [nM] | IC50 (HEK-293 cells) [nM]
2.42 | COc1cc2c(cc1N1CCN(Cc3ccc4c(c3)C(C)(C)C(=O)N4C3CCC(=O)NC3=O)CC1)[nH]c1ncnc(-c3cc(C)c([C@@H](C)NC(=O)c4nc(C(C)(C)C)no4)cc3F)c12 (stereo partly drawn) [Example 83, 3-(tert-butyl)-N-((1R)-1-(4-(7-(4-((1-(2,6-dioxopiperidin-3-yl)-3,3-dimethyl-2-oxoindolin-5-yl)methyl)piperazin-1-yl)-6-methoxy-9H-pyrimido[4,5-b]indol-4-yl)-5-fluoro-2-methylphenyl)ethyl)-1,2,4-oxadiazole-5-carboxamide] | > 10000 | –
8.15 | Cc1c([C@@H](C)NC(=O)c2noc(C(C)(C)C)n2)ccc(-c2ncnc3[nH]c4cc(N5CCN(Cc6cccc7c6C(C)(C)C(=O)N7C6CCC(=O)NC6=O)CC5)ccc4c23)c1F (stereo partly drawn) [Example 84, 5-(tert-butyl)-N-((1R)-1-(4-(7-(4-((1-(2,6-dioxopiperidin-3-yl)-3,3-dimethyl-2-oxoindolin-4-yl)methyl)piperazin-1-yl)-9H-pyrimido[4,5-b]indol-4-yl)-3-fluoro-2-methylphenyl)ethyl)-1,2,4-oxadiazole-3-carboxamide] | > 10000 | –
> 2000 | Cc1c([C@@H](C)NC(=O)c2noc(C(C)(C)C)n2)ccc(-c2ncnc3[nH]c4cc(N5CCN(Cc6ccc7c(c6)N(C6CCC(=O)NC6=O)C(=O)C7(C)C)CC5)ccc4c23)c1F (stereo partly drawn) [Example 85, 5-(tert-butyl)-N-((1R)-1-(4-(7-(4-((1-(2,6-dioxopiperidin-3-yl)-3,3-dimethyl-2-oxoindolin-6-yl)methyl)piperazin-1-yl)-9H-pyrimido[4,5-b]indol-4-yl)-3-fluoro-2-methylphenyl)ethyl)-1,2,4-oxadiazole-3-carboxamide] | > 10000 | –
> 2000 | Cc1c([C@@H](C)NC(=O)c2noc(C(C)(C)C)n2)ccc(-c2ncnc3[nH]c4cc(N5CCN(Cc6ccc7c(c6)C(C)(C)C(=O)N7C6CCC(=O)NC6=O)CC5)ccc4c23)c1F (stereo partly drawn) [Example 86, 5-(tert-butyl)-N-((1R)-1-(4-(7-(4-((1-(2,6-dioxopiperidin-3-yl)-3,3-dimethyl-2-oxoindolin-5-yl)methyl)piperazin-1-yl)-9H-pyrimido[4,5-b]indol-4-yl)-3-fluoro-2-methylphenyl)ethyl)-1,2,4-oxadiazole-3-carboxamide] | > 10000 | –
> 2000 | Cc1c([C@@H](C)NC(=O)c2noc(C(C)(C)C)n2)ccc(-c2ncnc3[nH]c4cc(N5CCN(C6CCN(Cc7ccc8c(c7)n(C7CCC(=O)NC7=O)c(=O)n8C)CC6)CC5)ccc4c23)c1F (stereo partly drawn) [Example 87, 5-(tert-butyl)-N-((1R)-1-(4-(7-(4-(1-((3-(2,6-dioxopiperidin-3-yl)-1-methyl-2-oxo-2,3-dihydro-1H-benzo[d]imidazol-5-yl)methyl)piperidin-4-yl)piperazin-1-yl)-9H-pyrimido[4,5-b]indol-4-yl)-3-fluoro-2-methylphenyl)ethyl)-1,2,4-oxadiazole-3-carboxamide] | > 10000 | –
> 2000 | Cc1c([C@@H](C)NC(=O)c2noc(C(C)(C)C)n2)ccc(-c2ncnc3[nH]c4cc(N5CCN(Cc6ccc(SC7CCC(=O)NC7=O)cc6)CC5)ccc4c23)c1F (stereo partly drawn) [Example 88, 5-(tert-butyl)-N-((1R)-1-(4-(7-(4-(4-((2,6-dioxopiperidin-3-yl)thio)benzyl)piperazin-1-yl)-9H-pyrimido[4,5-b]indol-4-yl)-3-fluoro-2-methylphenyl)ethyl)-1,2,4-oxadiazole-3-carboxamide] | > 10000 | –
0.55 | Cc1cc(-c2ncnc3[nH]c4cc(N5CCN(CC6CCN(c7ccc(N8CCC(=O)NC8=O)cc7)CC6)CC5)ccc4c23)c(F)cc1[C@@H](C)NC(=O)c1nc(C2(C)CC2)no1 [Example 89, (R)—N-(1-(4-(7-(4-((1-(4-(2,4-dioxotetrahydropyrimidin-1(2H)-yl)phenyl)piperidin-4-yl)methyl)piperazin-1-yl)-9H-pyrimido[4,5-b]indol-4-yl)-5-fluoro-2-methylphenyl)ethyl)-3-(1-methylcyclopropyl)-1,2,4-oxadiazole-5-carboxamide] | > 10000 | –
0.86 | Cc1cc(-c2ncnc3[nH]c4cc(N5CCN(C6CC(c7ccc([C@@H]8CCC(=O)NC8=O)cc7)C6)CC5)ccc4c23)c(F)cc1[C@@H](C)NC(=O)c1nc(C2(C)CC2)no1 (stereo partly drawn) [Example 90, N—((R)-1-(4-(7-(4-(3-(4-((S)-2,6-dioxopiperidin-3-yl)phenyl)cyclobutyl)piperazin-1-yl)-9H-pyrimido[4,5-b]indol-4-yl)-5-fluoro-2-methylphenyl)ethyl)-3-(1-methylcyclopropyl)-1,2,4-oxadiazole-5-carboxamide] | > 10000 | –
> 2000 | Cc1cc(-c2ncnc3[nH]c4cc(N5CCN(Cc6ccc7c(c6)N(C6CCC(=O)NC6=O)C(=O)C76CC6)CC5)ccc4c23)c(F)cc1[C@@H](C)NC(=O)c1noc(C(C)(C)C)n1 (stereo partly drawn) [Example 91, 5-(tert-butyl)-N-((1R)-1-(4-(7-(4-((1′-(2,6-dioxopiperidin-3-yl)-2′-oxospiro[cyclopropane-1,3′-indolin]-6′-yl)methyl)piperazin-1-yl)-9H-pyrimido[4,5-b]indol-4-yl)-5-fluoro-2-methylphenyl)ethyl)-1,2,4-oxadiazole-3-carboxamide] | > 10000 | –
3.08 | COc1cc2c(cc1N1CCN(CCc3ccc(C4(C)CCC(=O)NC4=O)cc3)CC1)[nH]c1ncnc(-c3ccc([C@@H](C)NC(=O)c4nc(C(C)(C)C)no4)c(C)c3)c12 (stereo partly drawn) [Example 92, 3-(tert-butyl)-N-((1R)-1-(4-(6-methoxy-7-(4-(4-(3-methyl-2,6-dioxopiperidin-3-yl)phenethyl)piperazin-1-yl)-9H-pyrimido[4,5-b]indol-4-yl)-2-methylphenyl)ethyl)-1,2,4-oxadiazole-5-carboxamide] | > 10000 | –
2.51 | COc1cc2c(cc1N1CCN(CC3CCN(c4ccc(N5CCC(=O)NC5=O)cc4)CC3)CC1)[nH]c1ncnc(-c3cc(C)c([C@@H](C)NC(=O)c4nc(C5(C)CC5)no4)cc3F)c12 [Example 93, (R)—N-(1-(4-(7-(4-((1-(4-(2,4-dioxotetrahydropyrimidin-1(2H)-yl)phenyl)piperidin-4-yl)methyl)piperazin-1-yl)-6-methoxy-9H-pyrimido[4,5-b]indol-4-yl)-5-fluoro-2-methylphenyl)ethyl)-3-(1-methylcyclopropyl)-1,2,4-oxadiazole-5-carboxamide] | > 10000 | –
0.768 | COc1cc2c(cc1N1CCN(C3CC(c4ccc(N[C@H]5CCC(=O)NC5=O)cc4)C3)CC1)[nH]c1ncnc(-c3cc(C)c([C@@H](C)NC(=O)c4nc(C5(C)CC5)no4)cc3F)c12 (stereo partly drawn) [Example 94, N—((R)-1-(4-(7-(4-((1S,3s)-3-(4-(((R)-2,6-dioxopiperidin-3-yl)amino)phenyl)cyclobutyl)piperazin-1-yl)-6-methoxy-9H-pyrimido[4,5-b]indol-4-yl)-5-fluoro-2-methylphenyl)ethyl)-3-(1-methylcyclopropyl)-1,2,4-oxadiazole-5-carboxamide] | – | 420
